# Where a name gives a salt, the structure may show the parent alone.
# Target: GSK3β (Homo sapiens (Human), UniProt P49841)
# Experiment: In vitro biochemical GSK3β inhibition assay (fluorescence, NADH-coupled)
# Conditions: 5 nM GSK3β, 40 μM substrate GSM, 50 μM ATP, 30° C., 2 hours
# Description: The inhibitory activity of active substances is determined in a biochemical assay. The ingredients required for this purpose are mixed in a black 384-well microtiter plate with transparent base (from Greiner, catalog number 781092). The requirements in this connection for each well of the 384-well microtiter plate are 5 nM GSK3β (from Upstate, catalog number xy), 40 μM GSK3β substrate GSM (sequence H-RRRPASVPPSPSLSRHS-(pS)-HQRR, from Upstate, catalog number 2-533), 30 μM nicotinamide adenine dinucleotide NADH (Roche Diagnostics, catalog number 10107735), 50 μM adenosine triphosphate ATP (from Sigma, catalog number A7966) and 2 mM phosphoenolpyruvate (from Roche, catalog number 128112). The required reaction buffer in which the biochemical reaction takes place consists of 50 mM Trizma hydrochloride Tris-HCl pH: 7.5 (from Sigma, catalog number T3253), 5 mM magnesium chloride MgCl2 (from Sigma, catalog number M8266), 0.2 mM DL-dithiothreitol DTT (from Sigma, catalog number D9779), 2 mM ethylenediaminetetraacetic acid EDTA (from Sigma, catalog number E6758), 0.01% Triton X-100 (from Sigma, catalog number T8787) and 0.05% bovine serum albumin BSA (from Sigma, catalog number B4287).
# Active substances are dissolved in dimethyl sulfoxide DMSO (from Sigma, catalog number D8418) in a concentration of 10 mM. Active substances are added in serial concentrations of 10 μM, 1 μM, 0.1 μM, 0.01 μM, 0.001 μM, 0.0001 μM, 0.00001 μM, 0.000001 μM to the mixtures of the biochemical reaction. As control, dimethyl sulfoxide is added instead of substance in a final concentration of 0.1%.
# The reaction is incubated at 30° C. for 2 hours and then the resulting fluorescence is measured in a Tecan Safire-XFLUOR4 instrument, version V4.50 (serial number 12901300283) with the specifications: measurement mode—fluorescence measured from below, extinction wavelength 340 nm, emission wavelength 465 nm, slit width extinction 5 nm, slit width emission 5 nm, gain mode 120, delay 0 μs, number of light flashes per measurement 3, and an integration time of 40 μs.
# The activity of the active substances is calculated in relation to these 0% and 100%.
# GSK3β, sequence (P49841 whole entry, species assumed): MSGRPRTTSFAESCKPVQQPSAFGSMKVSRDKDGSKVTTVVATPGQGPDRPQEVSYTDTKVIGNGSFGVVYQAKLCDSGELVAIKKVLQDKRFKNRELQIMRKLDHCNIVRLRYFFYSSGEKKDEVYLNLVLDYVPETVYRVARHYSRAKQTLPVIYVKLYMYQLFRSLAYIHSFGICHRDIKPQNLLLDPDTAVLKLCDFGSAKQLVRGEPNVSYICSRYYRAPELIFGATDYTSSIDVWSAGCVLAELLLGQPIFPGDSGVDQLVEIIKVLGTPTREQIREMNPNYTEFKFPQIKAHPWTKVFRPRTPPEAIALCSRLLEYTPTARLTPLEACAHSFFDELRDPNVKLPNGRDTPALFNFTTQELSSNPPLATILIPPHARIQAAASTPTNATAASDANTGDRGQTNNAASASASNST
row,IC50,Structure (SMILES)
1,0.008 µM,"CCOC(=O)c1cc2c(N3CCCC(Nc4nc(N)c(C(C)=O)s4)C3)nc(-c3ccc(Cl)cc3Cl)cn2n1 (stereo not shown) [Example 17, Ethyl 4-{3-[(5-acetyl-4-amino-1,3-thiazol-2-yl)amino]piperidin-1-yl}-6-(2,4-dichlorophenyl)pyrazolo[1,5-a]pyrazine-2-carboxylate trifluoroacetate]"
2,0.003 µM,N#Cc1sc(NC2CCCN(c3nc(-c4ccc(Cl)cc4Cl)cn4nc(C(=O)O)cc34)C2)nc1N (stereo not shown) [Example 19]
3,0.021 µM,"N#Cc1ccc(NCCNc2nc(-c3ccc(Cl)cc3Cl)cn3nc(C(=O)O)cc23)nc1 [Example 4, 4-({2-[(5-Cyanopyridin-2-yl)amino]ethyl}amino)-6-(2,4-dichlorophenyl)pyrazolo[1,5-a]pyrazine-2-carboxylic acid hydrochloride]"
4,0.08 µM,N#Cc1ccc(NCCNc2nc(-c3ccc(Cl)cc3Cl)cn3nc(CNC4CC4)cc23)nc1 [Example 58]
5,0.31 µM,"Cc1nc(C)n2nc(-c3ccccc3)nc(NCCNc3ccc(C#N)cn3)c12 [Example 9, 6-({2-[(5,7-Dimethyl-2-phenylimidazo[5,1-f][1,2,4]triazin-4-yl)amino]ethyl}amino)nicotinonitrile]"
6,0.03 µM,CN1CCN(CCNC(=O)c2cc3c(NCCNc4ccc(C#N)cn4)nc(-c4ccc(Cl)cc4Cl)cn3n2)CC1 [Example 5]
7,0.005 µM,N#Cc1sc(NCCNc2nc(-c3ccc(Cl)cc3Cl)cn3nc(C(=O)NCC(=O)O)cc23)nc1N [Example 24]
